The experiment addresses T1, catalytic domain of human Bub1 (amino acids 704-1085) (Homo sapiens, UniProt O43683).
T1 construct: catalytic domain of human Bub1 (amino acids 704-1085); His6 (N); made in house; host or cells: insect cells (Hi5)
Briefly: Bub1 kinase assay (TR-FRET). Type of experiment: biochemical. The settings on record: 10 μM ATP, avg, read-out: Bub1 avg (IC50 [mol/l]). Put shortly: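 Readout is the 665/620 nm TR-FRET ratio from anti-phosphoserine antibody, Eu-labelled anti-mouse IgG and streptavidin-XL665, scaled between no-enzyme and uninhibited controls. Reaction: 1 μM biotinylated peptide, 10 μM ATP, 60 min, 22 °C, after 15 min compound preincubation with His6-Bub1 (704-1085, insect-expressed, ~200 ng/ml).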
(TR-FRET usually uses a lanthanide donor and a delayed reading to cut background.)

Molecules are shown by their SMILES.

T1 sequence (O43683 704-1085): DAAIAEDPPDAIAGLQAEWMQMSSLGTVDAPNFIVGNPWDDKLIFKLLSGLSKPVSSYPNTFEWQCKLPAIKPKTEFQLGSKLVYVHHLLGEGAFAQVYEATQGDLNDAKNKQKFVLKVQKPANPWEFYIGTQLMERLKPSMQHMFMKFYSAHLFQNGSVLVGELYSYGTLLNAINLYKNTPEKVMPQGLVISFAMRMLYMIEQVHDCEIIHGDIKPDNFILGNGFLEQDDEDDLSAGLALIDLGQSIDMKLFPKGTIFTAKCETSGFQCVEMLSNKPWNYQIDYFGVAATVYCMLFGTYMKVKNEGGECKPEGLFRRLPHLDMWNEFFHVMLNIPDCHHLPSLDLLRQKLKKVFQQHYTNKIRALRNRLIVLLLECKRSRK

`Cc1nsc(Nc2cnc(C(F)(F)F)cn2)c1C(=O)Nc1ccc(O[C@@H]2CN(CC(F)F)C[C@@H]2F)nc1` [Example 411, N-(6-{[(3R,4S)-1-(2,2-Difluoroethyl)-4-fluoropyrrolidin-3-yl]oxy}pyridin-3-yl)-3-methyl-5-{[5-(trifluoromethyl)pyrazin-2-yl]amino}-1,2-thiazole-4-carboxamide]: the IC50 was above 20 µM.

As to `Cc1nsc(Nc2nc3c(C(F)(F)F)cccc3s2)c1C(=O)Nc1ccc(OCCO)nc1` [Example 2, N-[6-(2-Hydroxyethoxy)pyridin-3-yl]-3-methyl-5-{[4-(trifluoromethyl)-1,3-benzo-thiazol-2-yl]amino}-1,2-thiazole-4-carboxamide], the IC50 was at least 20 µM.

Regarding `Cc1nsc(Nc2cnc3ccccc3n2)c1C(=O)Nc1cccc(C(=O)NCC(=O)OC(C)(C)C)c1` [Example 54, tert-Butyl N-[3-({[3-methyl-5-(quinoxalin-2-ylamino)-1,2-thiazol-4-yl]carbonyl}amino)-benzoyl]glycinate], the IC50 stood at 16 µM.

The values are drawn from patent US20170334899A1, “AMINO-SUBSTITUTED ISOTHIAZOLES” (Bayer Pharma Aktiengesellschaft, priority 2014, published 2017).
